Assays:
PC-3 = assay: Cytotoxicity against human PC3 cells assessed as growth inhibition incubated for 48 hrs by Hoechst 33342 staining based assay; assay type: cell-based; conditions: PC-3, 48 h
[1] = biological target: NUAK family SNF1-like kinase 1 (Homo sapiens) (UniProt O60285); assay: Binding affinity to wild-type human partial length ARK5 (E25 to I332 residues) expressed in bacterial expression system assessed as residual binding level at 10 uM by Kinomescan method relative to control
MDA-MB-231 = assay: Cytotoxicity against human MDA-MB-231 cells assessed as growth inhibition incubated for 48 hrs by Hoechst 33342 staining based assay; assay type: cell-based; conditions: MDA-MB-231, 48 h
[2] = biological target: Dual specificity protein kinase CLK1 (Homo sapiens) (UniProt P49759); assay: Binding affinity to wild-type human full length CLK1 (M1 to I484 residues) expressed in bacterial expression system assessed as residual binding level at 10 uM by Kinomescan method relative to control
[3] = biological target: Phosphatidylinositol 4-phosphate 5-kinase type-1 alpha (Homo sapiens) (UniProt Q99755); assay: Binding affinity to wild-type human full length PIP5K1A (M1 to H562 residues) expressed in bacterial expression system assessed as residual binding level at 10 uM by Kinomescan method relative to control
[4] = biological target: Serine/threonine-protein kinase 35 (Homo sapiens) (UniProt Q8TDR2); assay: Binding affinity to wild-type human partial length STK35 (G182 to A534 residues) expressed in bacterial expression system assessed as residual binding level at 10 uM by Kinomescan method relative to control
[5] = biological target: MAP kinase-interacting serine/threonine-protein kinase 1 (Homo sapiens) (UniProt Q9BUB5); assay: Binding affinity to wild-type human full length MKNK1 (M1 to L424 residues) expressed in mammalian expression system assessed as residual binding level at 10 uM by Kinomescan method relative to control
[6] = biological target: Non-receptor tyrosine-protein kinase TYK2 (Homo sapiens) (UniProt P29597); assay: Binding affinity to wild-type human partial length TYK2 JH1 catalytic domain (V877 to C1187 residues) expressed in mammalian expression system assessed as residual binding level at 10 uM by Kinomescan method relative to control
[7] = biological target: Ribosomal protein S6 kinase alpha-5 (Homo sapiens) (UniProt O75582); assay: Binding affinity to wild-type human partial length C-terminal RPS6KA5 kinase domain 2 (V390 to T718 residues) expressed in bacterial expression system assessed as residual binding level at 10 uM by Kinomescan method relative to control
[8] = biological target: Calcium/calmodulin-dependent protein kinase type II subunit delta (Homo sapiens) (UniProt Q13557); assay: Binding affinity to wild-type human partial length CAMK2D (M1 to E329 residues) expressed in bacterial expression system assessed as residual binding level at 10 uM by Kinomescan method relative to control
[9] = biological target: Inhibitor of nuclear factor kappa-B kinase subunit beta (Homo sapiens) (UniProt O14920); assay: Binding affinity to wild-type human full length IKK-beta (M1 to S756 residues) expressed in mammalian expression system assessed as residual binding level at 10 uM by Kinomescan method relative to control
[10] = system: Tyrosine-protein kinase ABL1 (Homo sapiens), P00519 [F317L]; assay: Binding affinity to human non-phosphorylated ABL1 F317L mutant (S229 to K512 residues) expressed in mammalian expression system assessed as residual binding level at 10 uM by Kinomescan method relative to control
[11] = biological target: Tyrosine-protein kinase ZAP-70 (Homo sapiens) (UniProt P43403); assay: Binding affinity to wild-type human partial length ZAP70 (D20 to G299 residues) expressed in mammalian expression system assessed as residual binding level at 10 uM by Kinomescan method relative to control
[12] = system: Serine/threonine-protein kinase B-raf (Homo sapiens), P15056 [V600E]; assay: Binding affinity to human partial length BRAF V600E mutant (S429 to E741 residues) expressed in mammalian expression system assessed as residual binding level at 10 uM by Kinomescan method relative to control
[13] = system: Hepatocyte growth factor receptor (Homo sapiens), P08581 [Y1235D]; assay: Binding affinity to human partial length MET Y1235D mutant (D1010 to S1367 residues) expressed in bacterial expression system assessed as residual binding level at 10 uM by Kinomescan method relative to control
[14] = system: Receptor-type tyrosine-protein kinase FLT3 (Homo sapiens), P36888 [N841I]; assay: Binding affinity to human partial length FLT3 N841I mutant (V592 to Y969 residues) expressed in bacterial expression system assessed as residual binding level at 10 uM by Kinomescan method relative to control
[15] = biological target: RAF proto-oncogene serine/threonine-protein kinase (Homo sapiens) (UniProt P04049); assay: Binding affinity to wild-type human partial length RAF1 (I330 to T640 residues) expressed in bacterial expression system assessed as residual binding level at 10 uM by Kinomescan method relative to control
[16] = biological target: Casein kinase I isoform alpha (Homo sapiens) (UniProt P48729); assay: Binding affinity to wild-type human partial length CSNK1A1 (M1 to L450 residues) expressed in mammalian expression system assessed as residual binding level at 10 uM by Kinomescan method relative to control
[17] = biological target: Myosin light chain kinase 2, skeletal/cardiac muscle (Homo sapiens) (UniProt Q9H1R3); assay: Binding affinity to wild-type human partial length MYLK2 (D258 to K570 residues) expressed in bacterial expression system assessed as residual binding level at 10 uM by Kinomescan method relative to control
[18] = biological target: MAP kinase-activated protein kinase 5 (Homo sapiens) (UniProt Q8IW41); assay: Binding affinity to wild-type human partial length MAPKAPK5 (M1 to D322 residues) expressed in mammalian expression system assessed as residual binding level at 10 uM by Kinomescan method relative to control
[19] = biological target: Serine/threonine-protein kinase pim-3 (Homo sapiens) (UniProt Q86V86); assay: Binding affinity to wild-type human partial length PIM3 (G16 to A317 residues) expressed in bacterial expression system assessed as residual binding level at 10 uM by Kinomescan method relative to control
[20] = biological target: Tyrosine-protein kinase Blk (Homo sapiens) (UniProt P51451); assay: Binding affinity to wild-type human partial length BLK (G211 to L503 residues) expressed in bacterial expression system assessed as residual binding level at 10 uM by Kinomescan method relative to control
[21] = system: Receptor-type tyrosine-protein kinase FLT3 (Homo sapiens), P36888 [D835H]; assay: Binding affinity to human partial length FLT3 D835H mutant (V592 to Y969 residues) expressed in bacterial expression system assessed as residual binding level at 10 uM by Kinomescan method relative to control
[22] = biological target: BMP-2-inducible protein kinase (Homo sapiens) (UniProt Q9NSY1); assay: Binding affinity to wild-type human partial length BIKE (S34 to N329 residues) expressed in bacterial expression system assessed as residual binding level at 10 uM by Kinomescan method relative to control

Chain of Tyrosine-protein kinase ABL1 (Homo sapiens), P00519 [F317L] (P00519 whole entry F317L, the tested form may be a part): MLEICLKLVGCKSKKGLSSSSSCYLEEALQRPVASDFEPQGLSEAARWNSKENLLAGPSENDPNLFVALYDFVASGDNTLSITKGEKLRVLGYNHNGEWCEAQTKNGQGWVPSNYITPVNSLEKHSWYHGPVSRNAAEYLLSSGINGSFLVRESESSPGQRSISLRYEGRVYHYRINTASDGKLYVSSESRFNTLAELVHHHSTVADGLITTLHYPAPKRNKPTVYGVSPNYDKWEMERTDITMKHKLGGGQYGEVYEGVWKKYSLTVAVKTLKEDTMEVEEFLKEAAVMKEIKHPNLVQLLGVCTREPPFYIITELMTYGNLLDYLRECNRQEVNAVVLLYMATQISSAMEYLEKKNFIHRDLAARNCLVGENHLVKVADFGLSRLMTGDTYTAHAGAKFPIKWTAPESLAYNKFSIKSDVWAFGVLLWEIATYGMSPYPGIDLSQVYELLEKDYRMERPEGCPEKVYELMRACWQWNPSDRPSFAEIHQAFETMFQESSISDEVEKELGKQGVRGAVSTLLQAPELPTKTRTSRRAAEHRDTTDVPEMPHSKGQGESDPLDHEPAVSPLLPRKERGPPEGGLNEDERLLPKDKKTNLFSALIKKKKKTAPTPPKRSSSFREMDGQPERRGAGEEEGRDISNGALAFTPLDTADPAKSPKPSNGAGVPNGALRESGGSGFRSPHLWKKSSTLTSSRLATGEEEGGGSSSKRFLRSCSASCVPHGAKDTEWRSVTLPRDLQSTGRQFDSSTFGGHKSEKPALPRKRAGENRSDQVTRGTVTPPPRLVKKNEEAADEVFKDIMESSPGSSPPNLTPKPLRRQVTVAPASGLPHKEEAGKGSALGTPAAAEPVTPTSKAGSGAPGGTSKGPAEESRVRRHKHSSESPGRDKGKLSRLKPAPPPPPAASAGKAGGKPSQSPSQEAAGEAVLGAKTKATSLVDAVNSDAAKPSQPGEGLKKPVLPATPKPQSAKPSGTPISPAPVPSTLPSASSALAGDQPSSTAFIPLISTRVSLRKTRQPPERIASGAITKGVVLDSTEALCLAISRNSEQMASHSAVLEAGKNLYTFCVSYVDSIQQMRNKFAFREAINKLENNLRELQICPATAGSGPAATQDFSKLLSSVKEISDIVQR
Chain of Calcium/calmodulin-dependent protein kinase type II subunit delta (Homo sapiens) (Q13557 whole entry, the tested form may be a part): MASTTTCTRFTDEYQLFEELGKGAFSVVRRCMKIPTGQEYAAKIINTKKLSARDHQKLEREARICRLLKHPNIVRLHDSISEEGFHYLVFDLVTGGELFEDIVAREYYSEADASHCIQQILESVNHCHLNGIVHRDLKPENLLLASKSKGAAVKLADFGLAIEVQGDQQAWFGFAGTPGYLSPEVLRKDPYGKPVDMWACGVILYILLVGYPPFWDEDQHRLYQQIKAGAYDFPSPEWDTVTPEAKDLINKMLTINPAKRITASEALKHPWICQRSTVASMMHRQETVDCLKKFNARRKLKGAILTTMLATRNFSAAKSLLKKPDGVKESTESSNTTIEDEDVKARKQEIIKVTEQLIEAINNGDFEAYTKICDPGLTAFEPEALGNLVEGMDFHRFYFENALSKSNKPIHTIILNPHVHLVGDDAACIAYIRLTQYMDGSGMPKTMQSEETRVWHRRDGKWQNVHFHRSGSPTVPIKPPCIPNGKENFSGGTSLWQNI
Chain of MAP kinase-activated protein kinase 5 (Homo sapiens) (Q8IW41 whole entry, the tested form may be a part): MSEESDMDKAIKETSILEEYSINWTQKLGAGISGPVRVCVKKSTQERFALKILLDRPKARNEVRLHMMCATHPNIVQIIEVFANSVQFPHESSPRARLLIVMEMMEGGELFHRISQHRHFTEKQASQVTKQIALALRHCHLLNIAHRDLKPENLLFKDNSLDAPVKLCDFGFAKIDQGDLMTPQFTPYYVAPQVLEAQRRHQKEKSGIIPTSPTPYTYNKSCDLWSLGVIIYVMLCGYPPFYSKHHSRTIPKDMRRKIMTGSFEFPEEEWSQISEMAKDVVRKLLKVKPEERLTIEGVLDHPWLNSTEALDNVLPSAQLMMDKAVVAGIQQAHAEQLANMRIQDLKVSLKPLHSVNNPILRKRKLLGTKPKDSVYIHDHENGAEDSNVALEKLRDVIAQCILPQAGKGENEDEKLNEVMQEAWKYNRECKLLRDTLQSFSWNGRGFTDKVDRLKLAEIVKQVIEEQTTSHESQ
Chain of Serine/threonine-protein kinase B-raf (Homo sapiens), P15056 [V600E] (P15056 whole entry V600E, the tested form may be a part): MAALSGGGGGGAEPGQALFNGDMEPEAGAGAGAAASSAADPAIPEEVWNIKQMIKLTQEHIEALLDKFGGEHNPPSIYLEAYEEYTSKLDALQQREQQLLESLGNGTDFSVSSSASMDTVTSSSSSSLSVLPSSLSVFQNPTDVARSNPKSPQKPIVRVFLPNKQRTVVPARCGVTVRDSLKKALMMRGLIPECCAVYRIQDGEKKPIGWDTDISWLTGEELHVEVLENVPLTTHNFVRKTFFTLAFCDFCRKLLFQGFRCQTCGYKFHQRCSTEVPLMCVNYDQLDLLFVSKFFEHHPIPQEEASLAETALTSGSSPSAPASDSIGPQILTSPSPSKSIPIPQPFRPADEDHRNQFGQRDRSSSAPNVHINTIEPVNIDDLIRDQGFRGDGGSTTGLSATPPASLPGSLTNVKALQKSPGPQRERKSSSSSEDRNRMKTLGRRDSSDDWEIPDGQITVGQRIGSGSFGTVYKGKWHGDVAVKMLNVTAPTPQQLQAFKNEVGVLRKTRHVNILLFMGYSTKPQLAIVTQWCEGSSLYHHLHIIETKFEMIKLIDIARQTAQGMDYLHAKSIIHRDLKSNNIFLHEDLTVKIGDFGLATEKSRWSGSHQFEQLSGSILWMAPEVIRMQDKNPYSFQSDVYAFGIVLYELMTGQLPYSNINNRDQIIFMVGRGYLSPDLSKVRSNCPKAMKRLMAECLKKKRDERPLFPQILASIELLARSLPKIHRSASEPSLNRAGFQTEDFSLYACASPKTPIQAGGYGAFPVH
Chain of Non-receptor tyrosine-protein kinase TYK2 (Homo sapiens) (P29597 whole entry, the tested form may be a part): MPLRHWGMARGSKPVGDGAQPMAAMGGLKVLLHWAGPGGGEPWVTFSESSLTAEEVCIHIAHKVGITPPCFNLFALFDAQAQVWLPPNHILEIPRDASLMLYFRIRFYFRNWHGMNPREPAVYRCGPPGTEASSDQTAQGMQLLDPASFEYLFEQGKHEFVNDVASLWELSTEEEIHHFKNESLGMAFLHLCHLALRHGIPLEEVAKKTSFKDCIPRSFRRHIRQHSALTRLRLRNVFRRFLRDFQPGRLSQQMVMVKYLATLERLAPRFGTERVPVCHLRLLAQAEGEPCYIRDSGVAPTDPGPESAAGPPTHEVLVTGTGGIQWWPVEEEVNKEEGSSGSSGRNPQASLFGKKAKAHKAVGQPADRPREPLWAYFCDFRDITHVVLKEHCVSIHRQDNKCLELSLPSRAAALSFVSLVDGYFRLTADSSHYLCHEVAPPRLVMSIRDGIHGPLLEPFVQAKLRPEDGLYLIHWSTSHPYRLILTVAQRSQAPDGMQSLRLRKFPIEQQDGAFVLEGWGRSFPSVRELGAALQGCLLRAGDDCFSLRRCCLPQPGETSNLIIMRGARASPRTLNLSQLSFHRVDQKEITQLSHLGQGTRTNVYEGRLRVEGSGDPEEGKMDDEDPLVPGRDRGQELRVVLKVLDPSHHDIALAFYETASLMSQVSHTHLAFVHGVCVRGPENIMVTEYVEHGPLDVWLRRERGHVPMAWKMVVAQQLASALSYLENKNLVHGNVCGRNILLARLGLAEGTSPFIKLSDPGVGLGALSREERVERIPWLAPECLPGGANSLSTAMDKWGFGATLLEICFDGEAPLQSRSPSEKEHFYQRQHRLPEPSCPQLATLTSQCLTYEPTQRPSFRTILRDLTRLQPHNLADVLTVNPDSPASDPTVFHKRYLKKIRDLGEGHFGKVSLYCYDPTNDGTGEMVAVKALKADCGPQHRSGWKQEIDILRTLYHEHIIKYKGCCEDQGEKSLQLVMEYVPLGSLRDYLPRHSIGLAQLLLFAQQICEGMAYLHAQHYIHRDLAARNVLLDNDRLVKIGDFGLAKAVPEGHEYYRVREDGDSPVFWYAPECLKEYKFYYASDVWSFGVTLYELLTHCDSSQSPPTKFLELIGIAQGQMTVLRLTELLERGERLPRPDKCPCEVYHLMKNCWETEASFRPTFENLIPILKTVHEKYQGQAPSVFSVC
Chain of Serine/threonine-protein kinase 35 (Homo sapiens) (Q8TDR2 whole entry, the tested form may be a part): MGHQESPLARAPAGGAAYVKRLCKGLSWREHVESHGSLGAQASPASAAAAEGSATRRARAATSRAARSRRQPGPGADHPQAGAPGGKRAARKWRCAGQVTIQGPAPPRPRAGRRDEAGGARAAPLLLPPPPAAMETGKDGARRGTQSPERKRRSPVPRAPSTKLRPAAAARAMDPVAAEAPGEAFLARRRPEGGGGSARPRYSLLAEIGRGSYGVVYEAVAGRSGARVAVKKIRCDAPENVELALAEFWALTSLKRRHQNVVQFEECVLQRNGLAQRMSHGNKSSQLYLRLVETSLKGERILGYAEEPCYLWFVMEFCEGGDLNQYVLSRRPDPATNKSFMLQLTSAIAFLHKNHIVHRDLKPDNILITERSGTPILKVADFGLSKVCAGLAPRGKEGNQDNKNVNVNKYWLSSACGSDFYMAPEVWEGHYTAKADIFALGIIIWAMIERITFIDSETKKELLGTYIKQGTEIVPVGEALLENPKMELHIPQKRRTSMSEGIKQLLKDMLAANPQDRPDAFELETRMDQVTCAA
Chain of MAP kinase-interacting serine/threonine-protein kinase 1 (Homo sapiens) (Q9BUB5 whole entry, looked up, the tested form may be a part): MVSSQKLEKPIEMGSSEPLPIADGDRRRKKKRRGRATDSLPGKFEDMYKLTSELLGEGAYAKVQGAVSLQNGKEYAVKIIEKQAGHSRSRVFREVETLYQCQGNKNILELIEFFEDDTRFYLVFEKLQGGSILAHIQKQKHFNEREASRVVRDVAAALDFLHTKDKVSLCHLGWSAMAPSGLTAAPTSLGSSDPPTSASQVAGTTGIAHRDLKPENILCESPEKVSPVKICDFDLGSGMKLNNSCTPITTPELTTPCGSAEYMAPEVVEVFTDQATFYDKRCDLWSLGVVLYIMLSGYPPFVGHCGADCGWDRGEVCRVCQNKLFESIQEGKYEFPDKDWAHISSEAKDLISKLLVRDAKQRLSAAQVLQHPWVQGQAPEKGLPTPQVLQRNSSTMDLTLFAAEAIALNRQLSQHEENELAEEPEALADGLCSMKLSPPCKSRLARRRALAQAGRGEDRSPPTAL

In the case of `O=C(Nc1cc(-c2cn(CCNc3c4c(nc5ccccc35)CCCC4)nn2)ccn1)Nc1cccc2c1C1CCCCN1C2=O` (racemic), the IC50 (PC-3) is reported as 5 µM, the Activity [1] is reported as 0.85% and the IC50 (MDA-MB-231) is reported as 2 µM. The Activity [2] was 4.5%, the Activity [3] was 22% and the Activity [4] was 97%. The Activity [5] was 100%, the Activity [6] was 39% and the Activity [7] was 96%. It also gave an Activity [8] of 80%, an Activity [9] of 30% and an Activity [10] of 78%. For the same compound, the Activity [11] was 60%, the Activity [12] was 39% and the Activity [13] was 88%. The Activity [14] was 0%, the Activity [15] was 97% and the Activity [16] was 5.3%. The Activity [17] was 24%, the Activity [18] was 42% and the Activity [19] was 24%. For the same compound, the Activity [20] was 44%, the Activity [21] was 3.4% and the Activity [22] was 2.3%.

— ChEMBL document CHEMBL4390652, “Design, biological evaluation and X-ray crystallography of nanomolar multifunctional ligands targeting simultaneously acetylcholinesterase and glycogen synthase kinase-3” (Eur J Med Chem, 2019)
